Data: ChEMBL document CHEMBL5356971, “Optimization of the Antibacterial Spectrum and the Developability Profile of the Novel-Class Natural Product Corramycin” (J Med Chem, 2023)
In brackets after ≈: the same amount, converted by molar mass. Activity calls are given as the source filed them. No cut-off for these calls is given here.

Experiments:
[1] = system: Enterobacter cloacae; assay: Antibacterial activity against multidrug-resistant Enterobacter cloacae BAA2341 assessed as bacterial growth inhibition incubated for 20 to 22 hrs by CLSI based analysis; format: functional; conditions: time 20-22 hrs
[2] = system: Acinetobacter baumannii; assay: Antibacterial activity against multidrug-resistant Acinetobacter baumannii R831 assessed as bacterial growth inhibition incubated for 20 to 22 hrs by CLSI based analysis; format: functional; conditions: time 20-22 hrs
[3] = system: Escherichia coli; assay: Antibacterial activity against multidrug-resistant Escherichia coli MG1655 harboring tolC mutant assessed as bacterial growth inhibition incubated for 20 to 22 hrs by CLSI based analysis; format: functional; conditions: time 20-22 hrs
[4] = system: Klebsiella pneumoniae; assay: Antibacterial activity against […] assessed as bacterial growth inhibition incubated for 20 to 22 hrs by CLSI based analysis; format: functional; conditions: time 20-22 hrs
[5] = system: Klebsiella pneumoniae; assay: Antibacterial activity against multidrug-resistant Klebsiella pneumoniae BAA2473 assessed as bacterial growth inhibition incubated for 20 to 22 hrs by CLSI based analysis; format: functional; conditions: time 20-22 hrs
[6] = system: Escherichia coli; assay: Antibacterial activity against multidrug-resistant Escherichia coli BAA2469 assessed as bacterial growth inhibition incubated for 20 to 22 hrs by CLSI based analysis; format: functional; conditions: time 20-22 hrs
[7] = system: Providencia stuartii; assay: Antibacterial activity against multidrug-resistant Providencia stuartii ATCC 49809 assessed as bacterial growth inhibition incubated for 20 to 22 hrs by CLSI based analysis; format: functional; conditions: time 20-22 hrs
[8] = system: Klebsiella pneumoniae; assay: Antibacterial activity against multidrug-resistant Klebsiella pneumoniae G199 assessed as bacterial growth inhibition incubated for 20 to 22 hrs by CLSI based analysis; format: functional; conditions: time 20-22 hrs
[9] = system: Escherichia coli; assay: Antibacterial activity against multidrug-resistant Escherichia coli UT189 assessed as bacterial growth inhibition incubated for 20 to 22 hrs by CLSI based analysis; format: functional; conditions: time 20-22 hrs
[10] = system: Escherichia coli; assay: Antibacterial activity against […] assessed as bacterial growth inhibition incubated for 20 to 22 hrs by CLSI based analysis; format: functional; conditions: time 20-22 hrs
[11] = system: Pseudomonas aeruginosa; assay: Antibacterial activity against multidrug-resistant Pseudomonas aeruginosa PAO750 assessed as bacterial growth inhibition incubated for 20 to 22 hrs by CLSI based analysis; format: functional; conditions: time 20-22 hrs
[12] = system: Citrobacter freundii; assay: Antibacterial activity against multidrug-resistant Citrobacter freundii ATCC 8090 assessed as bacterial growth inhibition incubated for 20 to 22 hrs by CLSI based analysis; format: functional; conditions: time 20-22 hrs
[13] = system: Klebsiella pneumoniae; assay: Antibacterial activity against multidrug-resistant Klebsiella pneumoniae BAA2146 assessed as bacterial growth inhibition incubated for 20 to 22 hrs by CLSI based analysis; format: functional; conditions: time 20-22 hrs
[14] = system: Proteus mirabilis; assay: Antibacterial activity against multidrug-resistant Proteus mirabilis ATCC 7002 assessed as bacterial growth inhibition incubated for 20 to 22 hrs by CLSI based analysis; format: functional; conditions: time 20-22 hrs
[15] = system: Escherichia coli; assay: Antibacterial activity against multidrug-resistant Escherichia coli MG1655 assessed as bacterial growth inhibition incubated for 20 to 22 hrs by CLSI based analysis; format: functional; conditions: time 20-22 hrs
[16] = system: Pseudomonas aeruginosa; assay: Antibacterial activity against multidrug-resistant Pseudomonas aeruginosa PAO1 assessed as bacterial growth inhibition incubated for 20 to 22 hrs by CLSI based analysis; format: functional; conditions: time 20-22 hrs
[17] = system: Klebsiella pneumoniae; assay: Antibacterial activity against multidrug-resistant Klebsiella pneumoniae R1525 assessed as bacterial growth inhibition incubated for 20 to 22 hrs by CLSI based analysis; format: functional; conditions: time 20-22 hrs
[18] = system: Acinetobacter baumannii; assay: Antibacterial activity against multidrug-resistant Acinetobacter baumannii R835 assessed as bacterial growth inhibition incubated for 20 to 22 hrs by CLSI based analysis; format: functional; conditions: time 20-22 hrs
[19] = system: Escherichia coli; assay: Antibacterial activity against Escherichia coli ATCC 25922 infected in Swiss albino mouse thigh infection model at 10 mg/kg, iv measured after 1 hr; format: functional, organism-based
[20] = Metabolic stability in mouse lung assessed as parent compound remaining measured after 1 hrs by UPLC-MS analysis; format: ADME, tissue-based; conditions: for remaining at 1 h: mouse lung, read-out: Stability
[21] = system: Klebsiella pneumoniae; assay: Antibacterial activity against Klebsiella pneumoniae ATCC 13883 infected in Swiss albino mouse thigh infection model at 10 mg/kg, iv measured after 1 hr; format: functional, organism-based
[22] = Metabolic stability in mouse kidney assessed as parent compound remaining measured after 4 hrs by UPLC-MS analysis; format: ADME, tissue-based; conditions: read-out: Stability
[23] = system: Escherichia coli; assay: Antibacterial activity against wild type Escherichia coli ATCC 35218 assessed as reduction in microbial growth incubated for 20 to 22 hrs by CLSI based analysis; format: functional; conditions: time 20-22 hrs
[24] = system: Escherichia coli; assay: Antibacterial activity against Escherichia coli ATCC 35218 harboring SbmA assessed as reduction in microbial growth incubated for 20 to 22 hrs by CLSI based analysis; format: functional; conditions: time 20-22 hrs
[25] = system: Klebsiella pneumoniae; assay: Antibacterial activity against wild type Klebsiella pneumoniae ATCC 13883 assessed as reduction in microbial growth incubated for 20 to 22 hrs by CLSI based analysis; format: functional; conditions: time 20-22 hrs
[26] = system: Klebsiella pneumoniae; assay: Antibacterial activity against Klebsiella pneumoniae ATCC 13883 infected in Swiss albino mouse model of neutropenic lung infection at 10 mg/kg, iv pretreated for 1 hr followed by bacterial infection and measured after 5 hr post infection; format: functional, organism-based; conditions: time 6.0 hrs
[27] = system: Acinetobacter baumannii; assay: Antibacterial activity against wild type Acinetobacter baumannii ATCC 19606 assessed as reduction in microbial growth incubated for 20 to 22 hrs by CLSI based analysis; format: functional; conditions: time 20-22 hrs
[28] = system: Klebsiella pneumoniae; assay: Antibacterial activity against Klebsiella pneumoniae ATCC 13883 harboring SbmA assessed as reduction in microbial growth incubated for 20 to 22 hrs by CLSI based analysis; format: functional; conditions: time 20-22 hrs
[29] = Metabolic stability in mouse kidney assessed as parent compound remaining measured after 1 hrs by UPLC-MS analysis; format: ADME, tissue-based; conditions: read-out: Stability
[30] = Metabolic stability in mouse lung assessed as parent compound remaining measured after 4 hrs by UPLC-MS analysis; format: ADME, tissue-based; conditions: for remaining at 4 h: mouse lung, read-out: Stability
[31] = system: Escherichia coli; assay: Antibacterial activity against Escherichia coli ATCC 35218 assessed as reduction in microbial growth incubated for 20 to 22 hrs by CLSI based analysis; format: functional; conditions: time 20-22 hrs
[32] = system: Escherichia coli; assay: Antibacterial activity against Escherichia coli ATCC 35218 infected in Swiss albino mouse model of Septicaemia infection assessed as log reduction in Septicaemia in blood at 1 mg/kg , iv preincubated for 4 hrs followed by bacterial infection and measured after 4 hrs post infection; format: functional; conditions: time 8 hrs
[33] = system: Acinetobacter baumannii; assay: Antibacterial activity against Acinetobacter baumannii ATCC 19606 assessed as reduction in microbial growth incubated for 20 to 22 hrs by CLSI based analysis; format: functional; conditions: time 20-22 hrs
[34] = system: Klebsiella pneumoniae; assay: Antibacterial activity against Klebsiella pneumoniae ATCC 13883 assessed as reduction in microbial growth incubated for 20 to 22 hrs by CLSI based analysis; format: functional; conditions: time 20-22 hrs
[35] = system: Escherichia coli; assay: Antibacterial activity against Escherichia coli ATCC 35218 infected in Swiss albino mouse model of Septicaemia infection assessed as log reduction in Septicaemia in blood at 20 mg/kg , iv preincubated for 4 hrs followed by bacterial infection and measured after 4 hrs post infection; format: functional; conditions: time 8 hrs
[36] = system: Escherichia coli; assay: Antibacterial activity against multidrug-resistant Escherichia coli IR45 assessed as bacterial growth inhibition incubated for 20 to 22 hrs by CLSI based analysis; format: functional; conditions: time 20-22 hrs
[37] = system: Klebsiella pneumoniae; assay: Antibacterial activity against multidrug-resistant Klebsiella pneumoniae B817 assessed as bacterial growth inhibition incubated for 20 to 22 hrs by CLSI based analysis; format: functional; conditions: time 20-22 hrs

Structure (SMILES)	Activity [19]	remaining at 1 h [20] [%]	Activity [21]	remaining at 4 h [22] [%]	MIC [23] [µg/mL]	MIC [24] [µg/mL]	MIC [25] [µg/mL]	Activity [26]	MIC [27] [µg/mL]	MIC [28] [µg/mL]	remaining at 1 h [29] [%]	remaining at 4 h [30] [%]	MIC [31] [µg/mL]	Activity [32] [log10CFU]	MIC [33] [µg/mL]	MIC [34] [µg/mL]	further results
C[C@@H](O)[C@H]1C(=O)N2C(C(=O)O)=C(SCCNC=N)C[C@H]12 [IMIPENEM ANHYDROUS]	–	–	–	–	–	–	–	–	–	–	–	–	–	–	–	–	MIC [1]: > 64 µg/mL; MIC [2]: > 64 µg/mL; MIC [3]: ≤ 0.015 µg/mL; MIC [4]: 16 µg/mL (≈ 53.4 µM); MIC [5]: 1 µg/mL (≈ 3.34 µM); MIC [6]: > 2 µg/mL; MIC [7]: < 0.125 µg/mL; MIC [8]: 16 µg/mL (≈ 53.4 µM); MIC [9]: ≤ 0.25 µg/mL; MIC [10]: 0.25 µg/mL (≈ 0.835 µM); MIC [11]: 1 µg/mL (≈ 3.34 µM); MIC [12]: 1 µg/mL (≈ 3.34 µM); MIC [13]: > 16 µg/mL; MIC [14]: 1 µg/mL (≈ 3.34 µM); MIC [15]: ≤ 0.015 µg/mL; MIC [16]: 2 µg/mL (≈ 6.68 µM); MIC [17]: > 64 µg/mL; MIC [18]: > 1 µg/mL
CO[C@@H](CNC(=O)[C@H](NC(=O)[C@H](O)[C@H](C)O)[C@H](O)c1cncn1C)[C@H](O)[C@H](O)C(=O)N(C)[C@@H](Cc1ccc(F)cc1)C(=O)NCC(=O)N[C@H](C(=O)N[C@@H](CO)C(=O)N[C@H](C(=O)N[C@H](C(=O)N[C@@H](CO)C(=O)N[C@@H](CN)C(=O)NCc1cc(=O)c(O)cn1O)C(C)(C)C)C(C)(C)O)C(C)(C)O	Active	96	Active	95	0.01	4	0.12	Active	0.5	> 32	97	107	–	–	–	–	–
CO[C@@H](CNC(=O)[C@H](NC(=O)[C@H](O)[C@H](C)O)[C@H](O)c1cncn1C)[C@H](O)[C@H](O)C(=O)N(C)[C@@H](Cc1ccc(F)cc1)C(=O)NCC(=O)N[C@H](C(=O)N[C@@H](CO)C(=O)N[C@H](C(=O)N[C@H](C(=O)N[C@@H](CO)C(=O)NCCN)C(C)(C)C)C(C)(C)O)C(C)(C)O	–	–	–	92	–	–	–	–	–	–	105	–	0.125	-5.6	> 8	0.25	Stability ([20]; 1 h): 127%; Stability ([30]; 4 h): 138%
CC[C@H](C)[C@H](NC(=O)[C@@H](NC(=O)[C@H](CO)NC(=O)[C@@H](NC(=O)CNC(=O)[C@H](Cc1ccccc1)N(C)C(=O)[C@@H](O)[C@@H](O)[C@H](CNC(=O)[C@H](NC(=O)[C@H](O)[C@H](C)O)[C@H](O)c1cncn1C)OC)C(C)(C)O)C(C)(C)O)C(=O)N[C@@H](CO)C(=O)O	–	35	–	11	–	–	–	–	–	–	20	13	4	–	> 32	16	Activity [35]: -1.9 log10CFU
CO[C@@H](CNC(=O)[C@H](NC(=O)[C@H](O)[C@H](C)O)[C@H](O)c1cncn1C)[C@H](O)[C@H](O)C(=O)N(C)[C@@H](Cc1ccccc1)C(=O)NCC(=O)N[C@H](C(=O)N[C@@H](CO)C(=O)N[C@H](C(=O)N[C@H](C(=O)N[C@@H](CO)C(=O)N[C@@H](CCC(=O)NCc1cc(=O)c(O)cn1O)C(=O)O)C(C)(C)C)C(C)(C)O)C(C)(C)O	Active	91	Active	81	< 0.01	0.12	0.06	Active	0.25	> 32	92	86	–	-3.8	–	–	–
CO[C@@H](CNC(=O)[C@H](NC(=O)[C@H](O)[C@H](C)O)[C@H](O)c1cncn1C)[C@H](O)[C@H](O)C(=O)N(C)[C@@H](Cc1ccccc1)C(=O)NCC(=O)N[C@H](C(=O)N[C@@H](CO)C(=O)N[C@H](C(=O)N[C@@H](CC(C)C)C(=O)N[C@@H](CO)C(=O)NCCN)C(C)(C)O)C(C)(C)O	–	–	–	–	–	–	–	–	–	–	–	–	2	–	> 32	8	Activity [35]: -4.1 log10CFU
C[C@@H](O)[C@H]1C(=O)N2C(C(=O)O)=C(S[C@@H]3CN[C@H](C(=O)N(C)C)C3)[C@H](C)[C@H]12 [MEROPENEM]	–	–	–	–	–	–	–	–	–	–	–	–	–	–	–	–	MIC [1]: > 16 µg/mL; MIC [36]: 8 µg/mL (≈ 20.9 µM); MIC [6]: < 0.03 µg/mL; MIC [7]: ≤ 0.25 µg/mL; MIC [10]: < 0.03 µg/mL; MIC [11]: ≤ 0.25 µg/mL; MIC [12]: ≤ 0.25 µg/mL; MIC [13]: > 16 µg/mL; MIC [14]: ≤ 0.25 µg/mL; MIC [37]: < 0.03 µg/mL; MIC [16]: 1 µg/mL (≈ 2.61 µM)
CO[C@@H](CNC(=O)[C@H](NC(=O)[C@H](O)[C@H](C)O)[C@H](O)c1cncn1C)[C@H](O)[C@H](O)C(=O)N(C)[C@@H](Cc1ccccc1)C(=O)NCC(=O)N[C@H](C(=O)N[C@@H](CO)C(=O)N[C@H](C(=O)N[C@H](C(=O)N[C@@H](CCC(=O)NCc1cc(=O)c(O)cn1O)C(=O)O)C(C)(C)C)C(C)(C)O)C(C)(C)O	Active	100	Active	103	0.01	0.12	0.25	Active	0.5	> 32	97	99	–	-3.2	–	–	–
